Source: ChEMBL document CHEMBL1154418 (2007)
Active and inactive are the calls of the source.

How the values were obtained:
Escherichia coli [1] = assay: Antibacterial activity against tetracycline-resistant Escherichia coli with multiple drug resistance determinant isolates by broth microdilution method; type: functional
Escherichia coli [2] = assay: Antibacterial activity against tetracycline-resistant Escherichia coli clinical isolates expressing tet(B), tet(E) gene by broth microdilution method; type: functional
Escherichia coli [3] = assay: Antibacterial activity against Escherichia coli ATCC 25922 by broth microdilution method; type: functional, organism-based
Escherichia coli [4] = assay: Antibacterial activity against tetracycline-resistant Escherichia coli clinical isolates expressing tet(C), tet(E) gene by broth microdilution method; type: functional, organism-based
Escherichia coli [5] = assay: Antibacterial activity against tetracycline-resistant Escherichia coli clinical isolates expressing tet(M) gene by broth microdilution method; type: functional, organism-based
Escherichia coli [6] = assay: Antibacterial activity against tetracycline-resistant Escherichia coli clinical isolates expressing tet(A), tet(B), tet(D) gene by broth microdilution method; type: functional, organism-based
Escherichia coli [7] = assay: Antibacterial activity against tetracycline-resistant Escherichia coli clinical isolates without tet(B) gene by broth microdilution method; type: functional
Escherichia coli [8] = assay: Antibacterial activity against tetracycline-resistant Escherichia coli clinical isolates expressing tet(A), tet(D) gene by broth microdilution method; type: functional
Escherichia coli [9] = assay: Antibacterial activity against tetracycline-resistant Escherichia coli clinical isolates expressing tet(D), tet(E) gene by broth microdilution method; type: functional, organism-based
Escherichia coli [10] = assay: Antibacterial activity against tetracycline-resistant Escherichia coli clinical isolates expressing tet(B), tet(D), tet(E) gene by broth microdilution method; type: functional, organism-based
Escherichia coli [11] = assay: Antibacterial activity against tetracycline-resistant Escherichia coli clinical isolates expressing tet(A), tet(M) gene by broth microdilution method; type: functional, organism-based
Escherichia coli [12] = assay: Antibacterial activity against tetracycline-resistant Escherichia coli clinical isolates expressing tet(B) gene by broth microdilution method; type: functional
Escherichia coli [13] = assay: Antibacterial activity against tetracycline-resistant Escherichia coli clinical isolates expressing tet(A), tet(B) gene by broth microdilution method; type: functional
Escherichia coli [14] = assay: Antibacterial activity against tetracycline-resistant Escherichia coli clinical isolates expressing tet(D) gene by broth microdilution method; type: functional
Escherichia coli [15] = assay: Antibacterial activity against tetracycline-resistant Escherichia coli clinical isolates expressing tet(A), tet(B), tet(D), tet(E) gene by broth microdilution method; type: functional, organism-based
Escherichia coli [16] = assay: Antibacterial activity against tetracycline-resistant Escherichia coli clinical isolates expressing tet(A) gene by broth microdilution method; type: functional
Escherichia coli [17] = assay: Antibacterial activity against tetracycline-resistant Escherichia coli clinical isolates expressing tet(B), tet(C) gene by broth microdilution method; type: functional, organism-based
Escherichia coli [18] = assay: Antibacterial activity against tetracycline-resistant Escherichia coli with single drug resistance determinant isolates by broth microdilution method; type: functional
Escherichia coli [19] = assay: Antibacterial activity against tetracycline-resistant Escherichia coli clinical isolates expressing tet(C) gene by broth microdilution method; type: functional, organism-based
Escherichia coli [20] = assay: Antibacterial activity against tetracycline-resistant Escherichia coli clinical isolates expressing tet(E) gene by broth microdilution method; type: functional, organism-based
Escherichia coli [21] = assay: Antibacterial activity against tetracycline-resistant Escherichia coli clinical isolates expressing tet(B), tet(D) gene by broth microdilution method; type: functional
Escherichia coli [22] = assay: Antibacterial activity against tetracycline-susceptible Escherichia coli clinical isolates by broth microdilution method; type: functional
Escherichia coli [23] = assay: Antibacterial activity against tetracycline-resistant Escherichia coli clinical isolates expressing tet(A), tet(E) gene by broth microdilution method; type: functional, organism-based
Escherichia coli [24] = assay: Antibacterial activity against tetracycline-resistant Escherichia coli clinical isolates by broth microdilution method; type: functional

CN(C)c1ccc(O)c2c1C[C@H]1C[C@H]3[C@H](N(C)C)C(O)=C(C(N)=O)C(=O)[C@@]3(O)C(O)=C1C2=O [MINOCYCLINE]
1 µg/mL: MIC50 (Escherichia coli [22])
inactive: Activity (Escherichia coli [3]) | Activity (Escherichia coli [4]) | Activity (Escherichia coli [5]) | Activity (Escherichia coli [6]) | Activity (Escherichia coli [9]) | Activity (Escherichia coli [10]) | Activity (Escherichia coli [11]) | Activity (Escherichia coli [15]) | Activity (Escherichia coli [17]) | Activity (Escherichia coli [19]) | Activity (Escherichia coli [20]) | Activity (Escherichia coli [23])
16 µg/mL: MIC90 (Escherichia coli [8]) | MIC50 (Escherichia coli [12]) | MIC50 (Escherichia coli [13]) | MIC50 (Escherichia coli [21])
32 µg/mL: MIC90 (Escherichia coli [1]) | MIC90 (Escherichia coli [2]) | MIC90 (Escherichia coli [12]) | MIC90 (Escherichia coli [13]) | MIC90 (Escherichia coli [18])
8 µg/mL: MIC50 (Escherichia coli [1]) | MIC50 (Escherichia coli [2]) | MIC90 (Escherichia coli [7]) | MIC50 (Escherichia coli [14]) | MIC90 (Escherichia coli [14]) | MIC50 (Escherichia coli [18]) | MIC90 (Escherichia coli [24])
4 µg/mL: MIC50 (Escherichia coli [7]) | MIC50 (Escherichia coli [8]) | MIC90 (Escherichia coli [16]) | MIC50 (Escherichia coli [24])
64 µg/mL: MIC90 (Escherichia coli [21])
2 µg/mL: MIC50 (Escherichia coli [16]) | MIC90 (Escherichia coli [22])

CN(C)[C@@H]1C(O)=C(C(N)=O)C(=O)[C@@]2(O)C(O)=C3C(=O)c4c(O)cccc4[C@@](C)(O)[C@H]3C[C@@H]12 [TETRACYCLINE]
inactive: Activity (Escherichia coli [4]) | Activity (Escherichia coli [5]) | Activity (Escherichia coli [6]) | Activity (Escherichia coli [9]) | Activity (Escherichia coli [10]) | Activity (Escherichia coli [11]) | Activity (Escherichia coli [15]) | Activity (Escherichia coli [17]) | Activity (Escherichia coli [19]) | Activity (Escherichia coli [20]) | Activity (Escherichia coli [23])
> 64 µg/mL: MIC50 (Escherichia coli [1]) | MIC90 (Escherichia coli [1]) | MIC50 (Escherichia coli [2]) | MIC90 (Escherichia coli [2]) | MIC50 (Escherichia coli [7]) | MIC90 (Escherichia coli [7]) | MIC50 (Escherichia coli [8]) | MIC90 (Escherichia coli [8]) | MIC50 (Escherichia coli [12]) | MIC90 (Escherichia coli [12]) | MIC50 (Escherichia coli [13]) | MIC90 (Escherichia coli [13]) | MIC50 (Escherichia coli [14]) | MIC90 (Escherichia coli [14]) | MIC50 (Escherichia coli [16]) | MIC50 (Escherichia coli [18]) | MIC90 (Escherichia coli [18]) | MIC50 (Escherichia coli [21]) | MIC90 (Escherichia coli [21]) | MIC50 (Escherichia coli [24]) | MIC90 (Escherichia coli [24])
64 µg/mL: MIC90 (Escherichia coli [16])
4 µg/mL: MIC90 (Escherichia coli [22])

CN(C)c1cc(NC(=O)CNC(C)(C)C)c(O)c2c1C[C@H]1C[C@H]3[C@H](N(C)C)C(O)=C(C(N)=O)C(=O)[C@@]3(O)C(O)=C1C2=O [TIGECYCLINE]
0.5 µg/mL: MIC90 (Escherichia coli [1]) | MIC50 (Escherichia coli [7]) | MIC90 (Escherichia coli [7]) | MIC50 (Escherichia coli [8]) | MIC90 (Escherichia coli [12]) | MIC90 (Escherichia coli [13]) | MIC90 (Escherichia coli [14]) | MIC50 (Escherichia coli [16]) | MIC90 (Escherichia coli [16]) | MIC90 (Escherichia coli [18]) | MIC90 (Escherichia coli [21]) | MIC90 (Escherichia coli [22]) | MIC50 (Escherichia coli [24])
0.25 µg/mL: MIC50 (Escherichia coli [1]) | MIC50 (Escherichia coli [2]) | MIC90 (Escherichia coli [2]) | MIC50 (Escherichia coli [12]) | MIC50 (Escherichia coli [13]) | MIC50 (Escherichia coli [14]) | MIC50 (Escherichia coli [18]) | MIC50 (Escherichia coli [21]) | MIC50 (Escherichia coli [22])
inactive: Activity (Escherichia coli [3]) | Activity (Escherichia coli [4]) | Activity (Escherichia coli [5]) | Activity (Escherichia coli [6]) | Activity (Escherichia coli [9]) | Activity (Escherichia coli [10]) | Activity (Escherichia coli [11]) | Activity (Escherichia coli [15]) | Activity (Escherichia coli [17]) | Activity (Escherichia coli [19]) | Activity (Escherichia coli [20]) | Activity (Escherichia coli [23])
1 µg/mL: MIC90 (Escherichia coli [8]) | MIC90 (Escherichia coli [24])
